Source: ChEMBL document CHEMBL4043158, “Synthesis and carbonic anhydrase inhibition of polycyclic imides incorporating N-benzenesulfonamide moieties” (Bioorg Med Chem, 2017)
pKi: −log10 of the molar value.

Biological target: Carbonic anhydrase 9 (Homo sapiens, UniProt Q16790)
Assay: Inhibition of human CA9 pre-incubated for 10 mins by stopped-flow CO2 hydrase assay

Compound | pKi
NS(=O)(=O)c1ccc(CN2C(=O)c3cccc4cccc(c34)C2=O)cc1 | 6.97
NS(=O)(=O)c1ccc(N2C(=O)c3cccc4cccc(c34)C2=O)cc1 | 6.54
NS(=O)(=O)c1ccc(CCN2C(=O)c3cccc4cc([N+](=O)[O-])cc(c34)C2=O)cc1 | 6.62
NS(=O)(=O)c1ccc(CN2C(=O)c3cccc4cc([N+](=O)[O-])cc(c34)C2=O)cc1 | 6.60
NS(=O)(=O)c1ccc(CCn2c(=O)c3cc4c(=O)n(CCc5ccc(S(N)(=O)=O)cc5)c(=O)c4cc3c2=O)cc1 | 5.69
NS(=O)(=O)c1ccc(N2C(=O)c3cccc4cc([N+](=O)[O-])cc(c34)C2=O)cc1 | 6.66
NS(=O)(=O)c1ccc(-n2c(=O)c3ccccc3c3ccccc3c2=O)cc1 | 7.03
NS(=O)(=O)CCN1C(=O)c2ccc3c4c(ccc(c24)C1=O)C(=O)N(CCc1ccc(S(N)(=O)=O)cc1)C3=O | 7.59
NS(=O)(=O)c1ccc(-n2c(=O)c3cc4c(=O)n(-c5ccc(S(N)(=O)=O)cc5)c(=O)c4cc3c2=O)cc1 | 6.60
NS(=O)(=O)c1ccc(N2C(=O)c3ccc4c5c(ccc(c35)C2=O)C(=O)N(c2ccc(S(N)(=O)=O)cc2)C4=O)cc1 | 7.62
NS(=O)(=O)c1ccc(Cn2c(=O)c3cc4c(=O)n(Cc5ccc(S(N)(=O)=O)cc5)c(=O)c4cc3c2=O)cc1 | 6.19
NS(=O)(=O)c1ccc(CN2C(=O)c3ccc4c5c(ccc(c35)C2=O)C(=O)N(Cc2ccc(S(N)(=O)=O)cc2)C4=O)cc1 | 5.56
NS(=O)(=O)c1ccc(CCN2C(=O)c3cccc4cccc(c34)C2=O)cc1 | 6.97
NS(=O)(=O)c1ccc(CCn2c(=O)c3ccccc3c3ccccc3c2=O)cc1 | 6.52
NS(=O)(=O)c1ccc(Cn2c(=O)c3ccccc3c3ccccc3c2=O)cc1 | 6.72
